Consider one molecule from PMC10241923 (British Journal of Cancer, 2023).

Each structure is given as a SMILES string.

The target of this test is CDK9 (Homo sapiens, UniProt P50750). As to the kind of experiment: CeTSA isothermal dose-response at […] °C in intact LNCaP cells, immunoblot. Type of test: cell-based.
Sequence of CDK9 (P50750 whole entry): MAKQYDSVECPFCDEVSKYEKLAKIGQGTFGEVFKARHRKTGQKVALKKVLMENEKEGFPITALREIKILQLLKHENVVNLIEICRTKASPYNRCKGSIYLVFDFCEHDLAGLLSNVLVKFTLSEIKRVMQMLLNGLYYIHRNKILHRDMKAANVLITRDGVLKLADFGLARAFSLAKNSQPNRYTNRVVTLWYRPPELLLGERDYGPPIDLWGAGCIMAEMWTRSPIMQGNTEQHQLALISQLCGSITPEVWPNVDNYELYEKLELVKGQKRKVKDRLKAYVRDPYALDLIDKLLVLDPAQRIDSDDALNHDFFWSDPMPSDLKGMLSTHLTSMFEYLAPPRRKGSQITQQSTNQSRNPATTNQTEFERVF

`CC(C)c1cnn2c(NCc3ccccc3)cc(NC[C@H]3CCNC[C@@H]3O)nc12` [CT7001]: the “CeTSA isothermal dose-response at 54 °C in intact LNCaP cells, immunoblot” value is “has a degree of engagement also with CDK2 and CDK9 at higher concentrations”.
